Patent US7074789B2, “Kinase inhibitors” (Amgen Inc., priority 1999, dated 2006)
Read-outs that look alike come from different tables or passages of the source.

Experiments:
Assay type in all cases: biochemical
Lck = target: T1, Lck (Homo sapiens, UniProt P06239); assay: Kinase inhibition assay (33P transfer), Lck; details: read-out: Lck-1
T1 construct: Kinases are expressed as either kinase domains or full length constructs; made in house
Procedure, shortened: (§1)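 GST/His-tagged kinase (domain or full length; E. coli or baculovirus) + [33P]ATP on plates coated with poly(Glu,Tyr) 4:1 or poly(Arg,Ser) 3:1; incubate, wash 0.5% H3PO4, add scintillant, count.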

Lyn = target: T2, Lyn (Homo sapiens, UniProt P07948); assay: Kinase inhibition assay (33P transfer), Lyn; details: Table 6, Lyn-1 kinase inhibition class
T2 construct: Kinases are expressed as either kinase domains or full length constructs; made in house
Text: (§2) The inhibitor compounds described herein are screened in the following manner. Kinases suitable for use in the following protocol to determine kinase activity of the compounds described herein include, -but are not limited to: Lck, Lyn, Src, Fyn, Syk, Zap-70, Itk, Tec, Btk, EGFR, ErbB2, Kdr, Flt-1, Flt-3, Tek, c-Met, InsR, and AKT.
(§3) Kinases are expressed as either kinase domains or full length constructs fused to glutathione S-transferase (GST) or polyHistidine tagged fusion proteins in either E. colior Baculovirus-High Five expression systems. They are purified to near homogeneity by affinity chromatography essentially as previously described (Lehr et al., 1996; Gish et al., 1995). In some instances, kinases are co-expressed or mixed with purified or partially purified regulatory polypeptides prior to measurement of activity.
(§4) Kinase activity and inhibition are measured essentially by established protocols (Braunwalder et al., 1996). Briefly, The transfer of ^33PO4 from ATP to the synthetic substrates poly(Glu, Tyr) 4:1 or poly(Arg, Ser) 3:1 attached to the bioactive surface of microtiter plates serves as the basis to evaluate enzyme activity. After an incubation period, the amount of phosphate transferred is measured by first washing the plate with 0.5% phosphoric acid, adding liquid scintillant, and then counting in a liquid scintillation detector. The IC50 is determined by the concentration of compound that causes a 50% reduction in the amount of […] incorporated onto the substrate bound to the plate.

Src = target: T3, Src (Homo sapiens, UniProt P12931); assay: Kinase inhibition assay (33P transfer), Src; details: Table 6, Src-1 kinase inhibition class
T3 construct: Kinases are expressed as either kinase domains or full length constructs; made in house
Text: as §2, §3, §4

Fyn = target: T4, Fyn (Homo sapiens, UniProt P06241); assay: Kinase inhibition assay (33P transfer), Fyn; details: read-out: Fyn-1
T4 construct: Kinases are expressed as either kinase domains or full length constructs; made in house
Text: as §2, §3, §4

Zap-70 = target: T5, Zap-70 (Homo sapiens, UniProt P43403); assay: Kinase inhibition assay (33P transfer), Zap-70; details: read-out: Zap-1
T5 construct: Kinases are expressed as either kinase domains or full length constructs; made in house
T5 sequence (P43403 1-619): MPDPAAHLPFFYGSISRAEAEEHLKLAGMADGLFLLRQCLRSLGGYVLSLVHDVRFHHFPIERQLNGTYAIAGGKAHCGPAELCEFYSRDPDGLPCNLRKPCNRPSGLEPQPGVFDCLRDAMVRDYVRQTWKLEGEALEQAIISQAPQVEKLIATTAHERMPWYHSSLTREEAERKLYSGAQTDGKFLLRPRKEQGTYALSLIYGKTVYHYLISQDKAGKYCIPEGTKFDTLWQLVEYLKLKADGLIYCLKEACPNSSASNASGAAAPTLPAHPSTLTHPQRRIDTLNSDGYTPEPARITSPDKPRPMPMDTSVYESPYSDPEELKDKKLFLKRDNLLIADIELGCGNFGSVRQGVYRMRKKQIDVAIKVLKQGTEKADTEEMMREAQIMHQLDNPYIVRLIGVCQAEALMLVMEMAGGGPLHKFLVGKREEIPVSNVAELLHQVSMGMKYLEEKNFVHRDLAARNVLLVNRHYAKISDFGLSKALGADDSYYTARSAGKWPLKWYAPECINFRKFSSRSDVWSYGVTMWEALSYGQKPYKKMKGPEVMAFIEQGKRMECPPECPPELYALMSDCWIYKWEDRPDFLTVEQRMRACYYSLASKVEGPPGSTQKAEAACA
Procedure, shortened: as §1

Itk = target: T6, Itk (Homo sapiens, UniProt Q08881); assay: Kinase inhibition assay (33P transfer), Itk; details: read-out: Itk-1
T6 construct: Kinases are expressed as either kinase domains or full length constructs; made in house
T6 sequence (Q08881 1-620): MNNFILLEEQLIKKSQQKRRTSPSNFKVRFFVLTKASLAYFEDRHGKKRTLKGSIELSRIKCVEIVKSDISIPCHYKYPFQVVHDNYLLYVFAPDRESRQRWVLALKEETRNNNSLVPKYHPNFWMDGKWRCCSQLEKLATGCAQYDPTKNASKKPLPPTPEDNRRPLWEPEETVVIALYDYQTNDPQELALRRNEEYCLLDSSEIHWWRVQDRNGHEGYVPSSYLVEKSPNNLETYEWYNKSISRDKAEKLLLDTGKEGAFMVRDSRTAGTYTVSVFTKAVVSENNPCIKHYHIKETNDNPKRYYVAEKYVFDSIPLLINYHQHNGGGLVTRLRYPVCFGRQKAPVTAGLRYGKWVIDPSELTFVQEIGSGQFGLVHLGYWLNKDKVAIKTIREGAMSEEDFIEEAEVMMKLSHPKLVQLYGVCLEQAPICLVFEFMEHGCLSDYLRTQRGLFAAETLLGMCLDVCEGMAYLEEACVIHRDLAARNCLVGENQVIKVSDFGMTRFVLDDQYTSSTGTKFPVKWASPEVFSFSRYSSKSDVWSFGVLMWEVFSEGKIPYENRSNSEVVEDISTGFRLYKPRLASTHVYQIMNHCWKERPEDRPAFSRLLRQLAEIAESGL
Procedure, shortened: (§5)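 Read-out: scintillation counts of 33P moved from ATP onto synthetic peptide polymer coated on the well surface, after washing with 0.5% phosphoric acid. Enzymes were tagged (GST or polyHistidine) and came from bacterial or insect-cell expression. IC50 marks 50% loss of incorporated label.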

EGFR = target: T7, EGFR (Homo sapiens, UniProt P00533); assay: Kinase inhibition assay (33P transfer), EGFR; details: Table 2, kinase inhibition class; read-out: EGFR-1
T7 construct: Kinases are expressed as either kinase domains or full length constructs; made in house
T7 sequence (P00533 25-1210, species assumed): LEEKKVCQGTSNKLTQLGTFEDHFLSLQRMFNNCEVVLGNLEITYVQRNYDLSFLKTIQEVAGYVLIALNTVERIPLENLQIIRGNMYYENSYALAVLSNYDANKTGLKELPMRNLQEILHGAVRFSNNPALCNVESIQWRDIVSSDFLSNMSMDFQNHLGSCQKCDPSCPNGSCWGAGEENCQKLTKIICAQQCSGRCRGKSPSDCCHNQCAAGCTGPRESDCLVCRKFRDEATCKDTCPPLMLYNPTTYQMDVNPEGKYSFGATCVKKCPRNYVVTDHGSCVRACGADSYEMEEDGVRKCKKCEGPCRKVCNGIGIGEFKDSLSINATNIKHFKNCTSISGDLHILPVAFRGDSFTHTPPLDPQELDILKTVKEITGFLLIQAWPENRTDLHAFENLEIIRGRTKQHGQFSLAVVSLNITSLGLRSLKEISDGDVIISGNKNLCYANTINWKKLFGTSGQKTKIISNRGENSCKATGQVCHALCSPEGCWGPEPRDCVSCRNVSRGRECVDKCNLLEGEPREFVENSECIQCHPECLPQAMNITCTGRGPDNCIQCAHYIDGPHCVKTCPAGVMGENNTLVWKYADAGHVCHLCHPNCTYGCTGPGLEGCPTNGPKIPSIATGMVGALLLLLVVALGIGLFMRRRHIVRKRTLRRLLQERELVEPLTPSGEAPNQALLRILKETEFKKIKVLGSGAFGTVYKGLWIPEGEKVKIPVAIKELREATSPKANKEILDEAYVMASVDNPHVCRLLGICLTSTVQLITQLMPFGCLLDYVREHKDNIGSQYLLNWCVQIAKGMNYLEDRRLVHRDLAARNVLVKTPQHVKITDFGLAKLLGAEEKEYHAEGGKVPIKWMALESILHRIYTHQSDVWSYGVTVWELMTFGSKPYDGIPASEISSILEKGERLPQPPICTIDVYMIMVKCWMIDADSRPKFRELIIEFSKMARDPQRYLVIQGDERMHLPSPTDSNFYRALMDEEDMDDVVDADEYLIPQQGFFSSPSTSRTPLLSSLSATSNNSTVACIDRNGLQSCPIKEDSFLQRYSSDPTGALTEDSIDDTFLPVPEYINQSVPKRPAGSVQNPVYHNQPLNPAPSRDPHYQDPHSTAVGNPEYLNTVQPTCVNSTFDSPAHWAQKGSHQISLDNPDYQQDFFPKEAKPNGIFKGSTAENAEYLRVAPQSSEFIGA
Procedure, shortened: as §5

Kdr = target: T8, Kdr (Homo sapiens, UniProt P35968); assay: Kinase inhibition assay (33P transfer), Kdr; details: read-out: KDR-1
T8 construct: Kinases are expressed as either kinase domains or full length constructs; made in house
Procedure, shortened: as §1

Flt-1 = target: T9, Flt-1 (Homo sapiens, UniProt P17948); assay: Kinase inhibition assay (33P transfer), Flt-1
T9 construct: Kinases are expressed as either kinase domains or full length constructs; made in house
Text: as §2, §3, §4

Tek = target: T10, Tek (Homo sapiens, UniProt Q02763); assay: Kinase inhibition assay (33P transfer), Tek; details: read-out: Tek-1
T10 construct: Kinases are expressed as either kinase domains or full length constructs; made in house
Procedure, shortened: as §5

c-Met = target: T11, c-Met (Homo sapiens, UniProt P08581); assay: Kinase inhibition assay (33P transfer), c-Met; details: Table 2, kinase inhibition class; read-out: Met-1
T11 construct: Kinases are expressed as either kinase domains or full length constructs; made in house
Procedure, shortened: as §5

AKT = target: T12, AKT (Homo sapiens, UniProt Q9Y243); assay: Kinase inhibition assay (33P transfer), AKT; details: Table 2, kinase inhibition class; read-out: AKT3-1
T12 construct: Kinases are expressed as either kinase domains or full length constructs; made in house
T12 sequence (Q9Y243 whole entry, the tested form may be a part): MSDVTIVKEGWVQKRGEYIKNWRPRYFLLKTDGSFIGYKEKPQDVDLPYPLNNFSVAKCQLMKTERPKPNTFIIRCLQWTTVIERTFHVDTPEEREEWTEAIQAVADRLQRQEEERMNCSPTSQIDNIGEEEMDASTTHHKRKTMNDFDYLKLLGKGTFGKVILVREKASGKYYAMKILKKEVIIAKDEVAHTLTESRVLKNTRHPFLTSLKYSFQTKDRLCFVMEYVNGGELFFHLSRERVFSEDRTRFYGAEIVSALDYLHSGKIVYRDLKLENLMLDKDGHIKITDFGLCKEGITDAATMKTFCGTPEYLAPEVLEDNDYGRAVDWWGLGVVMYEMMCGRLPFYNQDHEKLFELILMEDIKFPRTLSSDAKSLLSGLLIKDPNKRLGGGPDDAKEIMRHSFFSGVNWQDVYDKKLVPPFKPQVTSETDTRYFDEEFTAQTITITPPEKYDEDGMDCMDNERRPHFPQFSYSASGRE
Procedure, shortened: as §1

PDGFRB [1] = target: T13, PDGFRB (Homo sapiens, UniProt P09619); assay: Kinase inhibition assay (33P transfer), PDGFRB; details: read-out: PDGFRB-1
T13 construct: Kinases are expressed as either kinase domains or full length constructs; made in house
T13 sequence (P09619 33-1106, species assumed): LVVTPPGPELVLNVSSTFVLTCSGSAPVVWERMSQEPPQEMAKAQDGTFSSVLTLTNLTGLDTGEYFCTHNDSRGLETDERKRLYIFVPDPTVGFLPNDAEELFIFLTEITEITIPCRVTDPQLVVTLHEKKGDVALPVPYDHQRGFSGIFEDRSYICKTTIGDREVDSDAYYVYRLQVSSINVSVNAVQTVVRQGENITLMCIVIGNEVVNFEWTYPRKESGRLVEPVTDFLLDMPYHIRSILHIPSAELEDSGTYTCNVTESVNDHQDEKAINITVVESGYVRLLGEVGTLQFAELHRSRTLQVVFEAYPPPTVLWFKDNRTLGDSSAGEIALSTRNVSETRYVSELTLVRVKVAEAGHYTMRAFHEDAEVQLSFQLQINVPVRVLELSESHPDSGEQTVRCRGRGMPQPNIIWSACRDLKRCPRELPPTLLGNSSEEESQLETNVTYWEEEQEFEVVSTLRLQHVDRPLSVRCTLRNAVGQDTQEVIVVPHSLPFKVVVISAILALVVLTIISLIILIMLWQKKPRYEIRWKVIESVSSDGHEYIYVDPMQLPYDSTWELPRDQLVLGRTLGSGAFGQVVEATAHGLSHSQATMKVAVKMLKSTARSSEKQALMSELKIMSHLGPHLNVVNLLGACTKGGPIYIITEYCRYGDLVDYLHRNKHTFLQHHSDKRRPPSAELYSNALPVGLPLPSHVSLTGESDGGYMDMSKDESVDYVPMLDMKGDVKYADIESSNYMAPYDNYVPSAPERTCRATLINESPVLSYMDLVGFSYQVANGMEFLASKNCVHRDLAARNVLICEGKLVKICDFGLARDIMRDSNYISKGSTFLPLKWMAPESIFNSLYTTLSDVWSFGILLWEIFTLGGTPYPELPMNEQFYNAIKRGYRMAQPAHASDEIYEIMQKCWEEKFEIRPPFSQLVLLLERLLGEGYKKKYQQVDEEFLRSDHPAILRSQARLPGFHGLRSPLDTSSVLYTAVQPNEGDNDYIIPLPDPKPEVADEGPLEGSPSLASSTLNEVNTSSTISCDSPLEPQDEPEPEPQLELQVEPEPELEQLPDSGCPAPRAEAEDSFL

Hck-1 = target: T14, Hck-1 (Homo sapiens, UniProt P08631); assay: Kinase inhibition assay (33P transfer), Hck; details: Table 6, Hck-1 kinase inhibition class
T14 construct: Kinases are expressed as either kinase domains or full length constructs; made in house
T14 sequence (P08631 whole entry, the tested form may be a part): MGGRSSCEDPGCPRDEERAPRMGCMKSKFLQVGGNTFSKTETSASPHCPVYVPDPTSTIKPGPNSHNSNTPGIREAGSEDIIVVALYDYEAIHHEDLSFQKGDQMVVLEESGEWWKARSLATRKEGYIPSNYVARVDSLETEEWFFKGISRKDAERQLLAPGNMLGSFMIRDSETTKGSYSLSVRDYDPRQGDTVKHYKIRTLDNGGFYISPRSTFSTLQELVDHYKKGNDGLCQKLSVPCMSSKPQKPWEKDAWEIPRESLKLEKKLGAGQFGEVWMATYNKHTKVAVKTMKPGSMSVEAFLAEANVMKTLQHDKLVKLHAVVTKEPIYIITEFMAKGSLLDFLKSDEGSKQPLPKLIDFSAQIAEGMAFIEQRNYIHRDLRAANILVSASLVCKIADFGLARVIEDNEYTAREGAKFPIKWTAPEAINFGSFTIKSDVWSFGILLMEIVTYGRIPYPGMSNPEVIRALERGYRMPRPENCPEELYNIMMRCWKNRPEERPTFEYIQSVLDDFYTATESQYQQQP

ErbB4 = target: T15, ErbB4 (Homo sapiens, UniProt Q15303); assay: Kinase inhibition assay (33P transfer), ErbB4; details: read-out: ErbB4-1
T15 construct: Kinases are expressed as either kinase domains or full length constructs; made in house
T15 sequence (Q15303 26-1308, species assumed): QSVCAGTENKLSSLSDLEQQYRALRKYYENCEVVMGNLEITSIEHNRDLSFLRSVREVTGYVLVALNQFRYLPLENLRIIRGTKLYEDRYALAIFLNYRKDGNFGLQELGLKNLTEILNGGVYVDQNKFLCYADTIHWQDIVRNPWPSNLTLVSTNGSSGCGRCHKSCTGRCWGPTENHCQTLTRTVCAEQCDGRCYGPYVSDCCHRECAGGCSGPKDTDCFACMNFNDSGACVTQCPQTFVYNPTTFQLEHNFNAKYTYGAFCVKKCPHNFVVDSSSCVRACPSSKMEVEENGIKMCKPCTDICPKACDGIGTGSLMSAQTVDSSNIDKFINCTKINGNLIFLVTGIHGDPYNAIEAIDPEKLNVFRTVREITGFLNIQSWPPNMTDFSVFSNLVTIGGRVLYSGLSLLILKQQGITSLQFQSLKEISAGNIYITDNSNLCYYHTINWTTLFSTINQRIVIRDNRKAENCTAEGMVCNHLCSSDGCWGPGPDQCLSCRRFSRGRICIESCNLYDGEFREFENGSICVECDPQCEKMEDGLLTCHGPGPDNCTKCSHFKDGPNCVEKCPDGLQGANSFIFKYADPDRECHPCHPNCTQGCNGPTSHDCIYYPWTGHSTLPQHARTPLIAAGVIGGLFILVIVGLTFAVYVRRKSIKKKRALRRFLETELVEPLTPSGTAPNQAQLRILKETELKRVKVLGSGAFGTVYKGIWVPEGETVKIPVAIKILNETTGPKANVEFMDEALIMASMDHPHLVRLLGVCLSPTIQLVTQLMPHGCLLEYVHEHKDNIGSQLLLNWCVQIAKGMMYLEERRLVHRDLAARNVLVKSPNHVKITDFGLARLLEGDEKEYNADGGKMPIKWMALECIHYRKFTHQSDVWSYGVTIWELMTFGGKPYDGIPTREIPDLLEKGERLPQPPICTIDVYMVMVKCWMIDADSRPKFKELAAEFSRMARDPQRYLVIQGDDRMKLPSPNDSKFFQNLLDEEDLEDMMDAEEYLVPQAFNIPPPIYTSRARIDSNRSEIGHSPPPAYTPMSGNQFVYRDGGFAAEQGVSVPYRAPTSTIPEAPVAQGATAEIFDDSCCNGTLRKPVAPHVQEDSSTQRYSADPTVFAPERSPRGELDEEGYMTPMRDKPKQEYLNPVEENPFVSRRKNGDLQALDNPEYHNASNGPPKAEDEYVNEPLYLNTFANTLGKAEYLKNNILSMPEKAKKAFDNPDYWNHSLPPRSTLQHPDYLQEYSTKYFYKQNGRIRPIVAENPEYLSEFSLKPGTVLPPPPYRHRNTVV

FGFR1 = target: T16, FGFR1 (Homo sapiens, UniProt P11362); assay: Kinase inhibition assay (33P transfer), FGFR1; details: read-out: FGFR1-1
T16 construct: Kinases are expressed as either kinase domains or full length constructs; made in house

ErbB2 = target: T17, ErbB2 (Homo sapiens, UniProt P04626); assay: Kinase inhibition assay (33P transfer), ErbB2; details: read-out: ErbB2-2
T17 construct: Kinases are expressed as either kinase domains or full length constructs; made in house
Procedure, shortened: as §5

IGFR-1 [2] = target: T18, IGFR-1 (Homo sapiens, UniProt P08069); assay: Kinase inhibition assay (33P transfer), IGFR-1; details: Table 2, kinase inhibition class
T18 construct: Kinases are expressed as either kinase domains or full length constructs; made in house

IGFR-1 [3] = target: T18, IGFR-1; assay: Kinase inhibition assay, IGFR-1 (Table 2); details: Table 2, kinase inhibition class
PDGFRB [4] = target: T13, PDGFRB; assay: Kinase inhibition assay (33P transfer), PDGFRB; details: read-out: PDGFRB-1; remark: listed apart in the source

T1 sequence (P06239 whole entry, species assumed, the tested form may be a part): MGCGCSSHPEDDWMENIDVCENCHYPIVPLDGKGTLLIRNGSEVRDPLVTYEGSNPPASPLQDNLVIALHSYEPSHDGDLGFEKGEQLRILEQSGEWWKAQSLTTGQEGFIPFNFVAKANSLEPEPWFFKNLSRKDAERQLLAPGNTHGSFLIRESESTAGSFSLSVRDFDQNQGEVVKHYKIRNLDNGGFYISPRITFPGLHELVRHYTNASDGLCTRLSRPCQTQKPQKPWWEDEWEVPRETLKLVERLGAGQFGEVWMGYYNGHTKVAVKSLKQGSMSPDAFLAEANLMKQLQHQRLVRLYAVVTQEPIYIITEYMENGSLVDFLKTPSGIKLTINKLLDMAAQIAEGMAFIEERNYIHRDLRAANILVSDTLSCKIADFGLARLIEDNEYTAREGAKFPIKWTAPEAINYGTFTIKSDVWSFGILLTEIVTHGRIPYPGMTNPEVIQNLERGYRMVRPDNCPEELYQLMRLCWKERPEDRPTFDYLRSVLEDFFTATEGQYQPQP

IC50 (Lck; Table 3)	IC50 (Lyn)	IC50 (Src)	IC50 (Fyn)	IC50 (Zap-70; Table 3)	IC50 (Itk; Table 3)	IC50 (EGFR)	IC50 (Kdr; Table 3)	IC50 (Flt-1)	IC50 (Tek)	IC50 (c-Met)	IC50 (AKT)	IC50 (PDGFRB [1])	IC50 (Hck-1)	IC50 (ErbB4)	IC50 (FGFR1)	Compound	further results
> 11.5 µM	1.02 to 6.15 µM	6.15 to 8.97 µM	6.15 to 8.97 µM	> 11.5 µM	1.02 to 6.15 µM	1.02 to 6.15 µM	< 1.02 µM	1.02 to 6.15 µM	> 11.5 µM	1.02 to 6.15 µM	> 11.5 µM	1.02 to 6.15 µM	> 11.5 µM	1.02 to 6.15 µM	1.02 to 6.15 µM	CC(=O)NCc1ccc(Nc2ncnc(Nc3cc(-c4ccco4)n[nH]3)n2)cc1 [Compound 443]	
> 9.29 µM	> 9.29 µM	> 9.29 µM	0.826 to 4.95 µM	> 9.29 µM	> 9.29 µM	> 9.29 µM	< 0.826 µM	< 0.826 µM	> 9.29 µM	> 9.29 µM	> 9.29 µM	< 0.826 µM	> 9.29 µM	> 9.29 µM	< 0.826 µM	COc1cc(Nc2ncnc(-n3c(NCc4ccccn4)nc4ccccc43)n2)cc(OC)c1OC [Compound 414]	IC50 (Lck): 0.826 to 4.95 µM; IC50 (Zap-70): > 9.29 µM; IC50 (Itk): > 9.29 µM; IC50 (ErbB2): > 9.29 µM; IC50 (Kdr): < 0.826 µM; IC50 (IGFR-1 [2]): > 9.29 µM; IC50 (IGFR-1 [3]): 7.22 to 9.29 µM; IC50 (PDGFRB [4]): < 0.826 µM
0.942 to 5.65 µM	5.65 to 8.25 µM	> 10.6 µM	0.942 to 5.65 µM	0.942 to 5.65 µM	8.25 to 10.6 µM	0.942 to 5.65 µM	0.942 to 5.65 µM	0.942 to 5.65 µM	5.65 to 8.25 µM	0.942 to 5.65 µM	> 10.6 µM	0.942 to 5.65 µM	5.65 to 8.25 µM	0.942 to 5.65 µM	0.942 to 5.65 µM	CC(=O)NS(=O)(=O)c1ccc(Nc2ncnc(-n3c(N)nc4ccccc43)n2)cc1 [Compound 440]	
0.845 to 5.07 µM	0.845 to 5.07 µM	0.845 to 5.07 µM	0.845 to 5.07 µM	0.845 to 5.07 µM	< 0.845 µM	0.845 to 5.07 µM	< 0.845 µM	< 0.845 µM	0.845 to 5.07 µM	0.845 to 5.07 µM	> 9.5 µM	< 0.845 µM	0.845 to 5.07 µM	0.845 to 5.07 µM	< 0.845 µM	COc1cc(Nc2ncnc(-n3c(Nc4cc(C)n[nH]4)nc4ccccc43)n2)cc(OC)c1OC [Compound 401]	
